Values after ≈ are worked out from the molar mass of the structure shown. Where two headings read alike, the source gives them in different places.
Tests used:
K. pneumoniae 848844 = test: microbe, parasite or virus in culture; type: cell-based, Klebsiella pneumoniae; conditions: Klebsiella pneumoniae; K. pneumoniae 848844 producing SHV-11 and KPC-2; read-out: MIC K. pneumoniae 848844
Method in brief: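 Strains are tested by standard CLSI broth microdilution. Log-phase cells, diluted by OD600 to 5×10^5 CFU/mL, meet 2-fold compound series and incubate 16-20 hours at 37° C before the lowest growth-free concentration is recorded.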

E. coli PBP3 = E. coli PBP3 (Escherichia coli (strain K12), UniProt P0AD68); test: E. coli PBP3 Bocillin-FL fluorescence polarization competition binding assay
Sequence of E. coli PBP3 (P0AD68 whole entry): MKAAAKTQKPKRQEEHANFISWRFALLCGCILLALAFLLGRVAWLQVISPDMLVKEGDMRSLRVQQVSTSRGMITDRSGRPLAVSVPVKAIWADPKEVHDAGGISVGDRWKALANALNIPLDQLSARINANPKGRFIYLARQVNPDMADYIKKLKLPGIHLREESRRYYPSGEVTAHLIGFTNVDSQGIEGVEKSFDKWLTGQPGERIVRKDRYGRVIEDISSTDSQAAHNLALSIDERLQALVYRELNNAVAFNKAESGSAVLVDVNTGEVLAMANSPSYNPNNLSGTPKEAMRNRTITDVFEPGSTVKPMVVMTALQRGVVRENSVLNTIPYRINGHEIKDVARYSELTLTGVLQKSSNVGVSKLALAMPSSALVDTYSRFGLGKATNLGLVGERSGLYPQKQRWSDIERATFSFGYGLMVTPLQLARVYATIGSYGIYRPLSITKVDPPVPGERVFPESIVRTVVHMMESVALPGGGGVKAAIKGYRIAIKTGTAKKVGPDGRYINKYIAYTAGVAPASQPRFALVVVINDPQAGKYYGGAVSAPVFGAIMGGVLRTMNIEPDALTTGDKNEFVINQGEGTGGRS
Method in brief: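 Competition against 0.1 μM Bocillin-FL for binding to 1.5 μM purified protein, read by fluorescence polarization for 60 min. Compounds tested from 0 to 1000 μM; EC50 taken as the concentration reducing probe binding.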

E. coli AG100 = test: Broth microdilution MIC, E. coli AG100 (wild-type parent); type: cell-based; conditions: Escherichia coli; wild-type parent E. coli AG100, broth microdilution; read-out: MIC E. coli AG100
Method in brief: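 Starting inoculum of 5×10^5 CFU/mL, from colonies grown 3-5 h in Mueller-Hinton broth with divalent cations, added to two-fold compound dilution series.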

N. gonorrhoeae WHO F = test: Liquid broth MIC, N. gonorrhoeae WHO F; type: cell-based; conditions: Neisseria gonorrhoeae; N. gonorrhoeae WHO F, liquid broth; read-out: Minimum Inhibitory Concentration, N. gonorrhoeae WHO F
Method in brief: (§1)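 Growth inhibition was scored by eye as the lowest compound concentration free of bacterial growth. Cultures from Kellogg's-supplemented GC agar, diluted to 5×10^5 CFU/mL, were exposed to serially diluted compound for 40-42 h at 36° C under 5% CO2.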

N. gonorrhoeae FA19 = test: Liquid broth MIC, N. gonorrhoeae FA19; type: cell-based; conditions: Neisseria gonorrhoeae; N. gonorrhoeae FA19, liquid broth; read-out: Minimum Inhibitory Concentration, N. gonorrhoeae FA19
Method in brief: as §1

[1] = test system: N. gonorrhoeae ATCC 49226; test: Liquid broth MIC, N. gonorrhoeae ATCC 49226; type: cell-based; conditions: Neisseria gonorrhoeae, ATCC49226; N. gonorrhoeae ATCC 49226, liquid broth; read-out: Minimum Inhibitory Concentration, N. gonorrhoeae ATCC 49226
Method in brief: as §1

[2] = fluorescence polarization competition binding with Bocillin-FL, read-out: E. coli K12 PBP3 Potency

Row | SMILES | MIC (K. pneumoniae 848844) | EC50 (E. coli PBP3) | MIC (E. coli AG100) | MIC (N. gonorrhoeae WHO F) | MIC (N. gonorrhoeae FA19) | MIC [1] | EC50 (E. coli PBP3; [2])
1 | CCN1CCN(C(=O)NC(C(=O)N[C@H]2Cc3cc(F)cc(C(=O)O)c3OB2O)c2csc(N)n2)C(=O)C1=O (stereo partly drawn) [Example 16, (3R)-3-(2-(2-aminothiazol-4-yl)-2-(4-ethyl-2,3-dioxopiperazine-1-carboxamido)acetamido)-6-fluoro-2-hydroxy-3,4-dihydro-2H-benzo[e][1,2]oxaborinine-8-carboxylic acid] | 32 to 64 µg/mL | 30 to 500 µM | 32 to 64 µg/mL | – | – | – | –
2 | CCN1CCN(C(=O)NC(C(=O)N[C@H]2Cc3cccc(C(=O)O)c3OB2O)c2ccc(O)cc2)C(=O)C1=O (stereo partly drawn) [Example 27, (3R)-3-(2-(4-ethyl-2,3-dioxopiperazine-1-carboxamido)-2-(4-hydroxyphenyl)acetamido)-2-hydroxy-3,4-dihydro-2H-benzo[e][1,2]oxaborinine-8-carboxylic acid] | > 128 µg/mL | 30 to 500 µM | 32 to 64 µg/mL | – | – | – | –
3 | CCN1CCN(C(=O)NC(C(=O)N[C@H]2Cc3cccc(C(=O)O)c3OB2O)c2ccc(O)c(O)c2Cl)C(=O)C1=O (stereo partly drawn) [Example 37, (3R)-3-(2-(2-chloro-3,4-dihydroxyphenyl)-2-(4-ethyl-2,3-dioxopiperazine-1-carboxamido)acetamido)-2-hydroxy-3,4-dihydro-2H-benzo[e][1,2]oxaborinine-8-carboxylic acid] | – | – | 32 to 64 µg/mL | 1 to 2 µg/mL (≈ 1.74 to 3.48 µM) | 4 to 8 µg/mL (≈ 6.96 to 13.9 µM) | 4 to 8 µg/mL (≈ 6.96 to 13.9 µM) | < 30 µM
4 | CCN1CCN(C(=O)NC(C(=O)N[C@H]2Cc3cccc(C(=O)O)c3OB2O)c2cnc(N)s2)C(=O)C1=O (stereo partly drawn) [Example 51, (3R)-3-(2-(2-aminothiazol-5-yl)-2-(4-ethyl-2,3-dioxopiperazine-1-carboxamido)acetamido)-2-hydroxy-3,4-dihydro-2H-benzo[e][1,2]oxaborinine-8-carboxylic acid] | – | 30 to 500 µM | 32 to 64 µg/mL | – | – | – | –
5 | O=C(O)c1cccc2c1OB(O)[C@@H](NC(=O)C(NC(=O)N1CCN(CCF)C(=O)C1=O)c1ccc(O)c(O)c1Cl)C2 (stereo partly drawn) [Example 71, (3R)-3-(2-(2-chloro-3,4-dihydroxyphenyl)-2-(4-(2-fluoroethyl)-2,3-dioxopiperazine-1-carboxamido)acetamido)-2-hydroxy-3,4-dihydro-2H-benzo[e][1,2]oxaborinine-8-carboxylic acid] | – | – | 2 to 4 µg/mL | – | – | – | < 30 µM
6 | CCCN1CCN(C(=O)NC(C(=O)N[C@H]2Cc3cccc(C(=O)O)c3OB2O)c2ccc(O)c(O)c2Cl)C(=O)C1=O (stereo partly drawn) [Example 82, (3R)-3-(2-(2-chloro-3,4-dihydroxyphenyl)-2-(2,3-dioxo-4-propylpiperazine-1-carboxamido)acetamido)-2-hydroxy-3,4-dihydro-2H-benzo[e][1,2]oxaborinine-8-carboxylic acid] | > 128 µg/mL | – | 32 to 64 µg/mL | – | – | – | < 30 µM
7 | CCN1CCN(C(=O)NC(C(=O)N[C@H]2Cc3cccc(C(=O)O)c3OB2O)c2ccc(O)cc2F)C(=O)C1=O (stereo partly drawn) [Example 87, (3R)-3-(2-(4-ethyl-2,3-dioxopiperazine-1-carboxamido)-2-(2-fluoro-4-hydroxyphenyl)acetamido)-2-hydroxy-3,4-dihydro-2H-benzo[e][1,2]oxaborinine-8-carboxylic acid] | – | – | – | < 0.125 µg/mL | 4 to 8 µg/mL (≈ 7.38 to 14.8 µM) | 1 to 2 µg/mL (≈ 1.84 to 3.69 µM) | < 30 µM
8 | CCN1CCN(C(=O)NC(C(=O)N[C@H]2Cc3cccc(C(=O)O)c3OB2O)c2cc(O)c(O)cc2F)C(=O)C1=O (stereo partly drawn) [Example 90, (3R)-3-(2-(4-ethyl-2,3-dioxopiperazine-1-carboxamido)-2-(2-fluoro-4,5-dihydroxyphenyl)acetamido)-2-hydroxy-3,4-dihydro-2H-benzo[e][1,2]oxaborinine-8-carboxylic acid] | 32 to 64 µg/mL | – | 8 to 16 µg/mL | – | – | – | < 30 µM
9 | CCN1CCN(C(=O)NC(C(=O)N[C@H]2Cc3cccc(C(=O)O)c3OB2O)c2ccc(S(N)(=O)=O)cc2)C(=O)C1=O (stereo partly drawn) [Example 102, (3R)-3-(2-(4-ethyl-2,3-dioxopiperazine-1-carboxamido)-2-(4-sulfamoylphenyl)acetamido)-2-hydroxy-3,4-dihydro-2H-benzo[e][1,2]oxaborinine-8-carboxylic acid] | – | – | 8 to 16 µg/mL | < 0.125 µg/mL | 1 to 2 µg/mL (≈ 1.7 to 3.4 µM) | 1 to 2 µg/mL (≈ 1.7 to 3.4 µM) | < 30 µM
10 | NS(=O)(=O)c1ccc(C(NC(=O)N2CCN(CCF)C(=O)C2=O)C(=O)N[C@H]2Cc3cccc(C(=O)O)c3OB2O)cc1 (stereo partly drawn) [Example 103, (3R)-3-(2-(4-(2-fluoroethyl)-2,3-dioxopiperazine-1-carboxamido)-2-(4-sulfamoylphenyl)acetamido)-2-hydroxy-3,4-dihydro-2H-benzo[e][1,2]oxaborinine-8-carboxylic acid] | – | – | 8 to 16 µg/mL | < 0.125 µg/mL | 1 to 2 µg/mL (≈ 1.65 to 3.3 µM) | 1 to 2 µg/mL (≈ 1.65 to 3.3 µM) | < 30 µM
11 | CCN1CCN(C(=O)NC(C(=O)N[C@H]2Cc3cccc(C(=O)O)c3OB2O)c2cccc(N)n2)C(=O)C1=O (stereo partly drawn) [Example 104, (3R)-3-(2-(6-aminopyridin-2-yl)-2-(4-ethyl-2,3-dioxopiperazine-1-carboxamido)acetamido)-2-hydroxy-3,4-dihydro-2H-benzo[e][1,2]oxaborinine-8-carboxylic acid] | > 128 µg/mL | – | 32 to 64 µg/mL | – | – | – | < 30 µM
12 | CCN1CCN(C(=O)NC(C(=O)N[C@H]2Cc3cccc(C(=O)[O-])c3OB2O)c2ccc[n+](CC(N)=O)c2)C(=O)C1=O (stereo partly drawn) [Example 107, (3R)-3-(2-(1-(2-amino-2-oxoethyl)pyridin-1-ium-3-yl)-2-(4-ethyl-2,3-dioxopiperazine-1-carboxamido)acetamido)-2-hydroxy-3,4-dihydro-2H-benzo[e][1,2]oxaborinine-8-carboxylate] | 32 to 64 µg/mL | – | 32 to 64 µg/mL | – | – | – | > 500 µM
13 | CCN1CCN(C(=O)N[C@@H](C(=O)N[C@H]2Cc3ccc(F)c(C(=O)O)c3OB2O)[C@@H](C)O)C(=O)C1=O [Example 110, (R)-3-((2R,3R)-2-(4-ethyl-2,3-dioxopiperazine-1-carboxamido)-3-hydroxybutanamido)-7-fluoro-2-hydroxy-3,4-dihydro-2H-benzo[e][1,2]oxaborinine-8-carboxylic acid] | 32 to 64 µg/mL | 30 to 500 µM | 8 to 16 µg/mL | – | – | – | –
14 | CCN1CCN(C(=O)NC(C(=O)N[C@H]2Cc3cccc(C(=O)O)c3OB2O)c2cccs2)C(=O)C1=O (stereo partly drawn) [Example 115, (3R)-3-(2-(4-ethyl-2,3-dioxopiperazine-1-carboxamido)-2-(thiophen-2-yl)acetamido)-2-hydroxy-3,4-dihydro-2H-benzo[e][1,2]oxaborinine-8-carboxylic acid] | > 128 µg/mL | – | 32 to 64 µg/mL | – | – | – | < 30 µM
15 | CCN1CCN(C(=O)NC(C(=O)N[C@H]2Cc3cccc(C(=O)O)c3OB2O)c2cccc(O)n2)C(=O)C1=O (stereo partly drawn) [Example 117, (3R)-3-(2-(4-ethyl-2,3-dioxopiperazine-1-carboxamido)-2-(6-hydroxypyridin-2-yl)acetamido)-2-hydroxy-3,4-dihydro-2H-benzo[e][1,2]oxaborinine-8-carboxylic acid] | 32 to 64 µg/mL | 30 to 500 µM | > 128 µg/mL | – | – | – | –
16 | CCN1CCN(C(=O)NC(C(=O)N[C@H]2Cc3cccc(C(=O)O)c3OB2O)c2cnc(O)cn2)C(=O)C1=O (stereo partly drawn) [Example 121, (3R)-3-(2-(4-ethyl-2,3-dioxopiperazine-1-carboxamido)-2-(5-hydroxypyrazin-2-yl)acetamido)-2-hydroxy-3,4-dihydro-2H-benzo[e][1,2]oxaborinine-8-carboxylic acid] | > 128 µg/mL | 30 to 500 µM | 32 to 64 µg/mL | – | – | – | –
